{"source": "patent US12629339B2", "about": "“Lithium salt extended-release formulations; methods of making; and methods of use thereof” (Almatica Pharma LLC, priority 2023, dated 2026)", "origin": "cited, not measured here", "conditions": "serum lithium level"}
{"smiles": "[Li]", "note": "[lithium]", "values": [{"measurement": "Toxic concentration of lithium", "value": "≥ 1.5", "unit": "mEq/L"}]}
